Data from patent US11168083B2, “Inhibitors of Plasma Kallikrein and uses thereof” (Takeda Pharmaceutical Company Limited, priority 2017, dated 2021).

Molecular target: human activated kallikrein enzyme (Homo sapiens (Human), UniProt P03952)
Assay: Inhibition of human activated kallikrein enzyme, fluorogenic peptide substrate assay (two formats)
Format: biochemical
Conditions: Table 2; column head prints nM, ranges defined in μM; read-out: pKal EC50
Protocol: The example compounds were evaluated for inhibition of the human activated kallikrein enzyme in two formats of an assay employing a fluorogenic peptide substrate. In one assay format, the concentrations of reagents were as follows: 20 mM Tris pH 7.5, 1 mM EDTA, 150 mM sodium chloride, 0.1% PEG-400, 0.1% Triton X-100, 500 pM activated kallikrein enzyme, 300 uM Pro-Phe-Arg-7-amido-4-methylcoumarin substrate. Prior to reaction initiation with substrate, enzyme and inhibitors were preincubated for 30 min at room temperature. After initiation with substrate, reactions were incubated for 10 min at room temperature and fluorescence emission at 460 nm from 380 nm excitation measured with a microplate reader. In another assay format, the concentrations of reagents were as follows: 20 mM Tris pH 7.5, 1 mM EDTA, 150 mM sodium chloride, 0.1% PEG-400, 0.1% Triton X-100, 5 pM activated kallikrein enzyme, 300 uM Pro-Phe-Arg-7-amido-4-methylcoumarin substrate. Prior to reaction initiation with substrate, enzyme and inhibitors were preincubated for 30 min at room temperature. After initiation with substrate, reactions were incubated for 18 hr at room temperature and fluorescence emission at 460 nm from 380 nm excitation measured with a microplate reader.

Chain of human activated kallikrein enzyme (P03952 391-638): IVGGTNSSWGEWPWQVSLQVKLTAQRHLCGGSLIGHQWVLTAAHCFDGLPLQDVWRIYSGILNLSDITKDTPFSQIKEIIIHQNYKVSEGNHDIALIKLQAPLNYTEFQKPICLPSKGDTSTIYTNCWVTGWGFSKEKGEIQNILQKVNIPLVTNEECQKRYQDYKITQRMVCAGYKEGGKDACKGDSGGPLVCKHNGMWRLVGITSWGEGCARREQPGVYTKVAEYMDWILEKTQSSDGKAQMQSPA
Chain of human activated kallikrein enzyme (P03952 20-390 partner): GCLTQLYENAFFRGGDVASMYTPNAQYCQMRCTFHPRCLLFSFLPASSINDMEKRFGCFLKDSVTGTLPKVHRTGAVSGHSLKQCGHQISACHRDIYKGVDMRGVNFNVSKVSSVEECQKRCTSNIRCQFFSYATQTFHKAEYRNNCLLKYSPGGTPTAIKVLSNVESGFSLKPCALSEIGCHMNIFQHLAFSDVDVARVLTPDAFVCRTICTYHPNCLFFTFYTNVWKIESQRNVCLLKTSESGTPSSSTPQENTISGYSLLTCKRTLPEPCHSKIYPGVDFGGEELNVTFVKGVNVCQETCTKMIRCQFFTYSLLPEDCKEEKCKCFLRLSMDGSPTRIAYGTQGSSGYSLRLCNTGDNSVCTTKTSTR

EC50 [nM] | SMILES
> 9900 | CNC(=O)[C@H](CCCCNC(C)=O)NC(=O)c1csc([C@@H]2C[C@@H](N)CN2C(=O)c2cn3cc(Cl)ccc3n2)n1 [Compound 26, N—((S)-6-acetamido-1-(methylamino)-1-oxohexan-2-yl)-2-((2S,4R)-4-amino-1-(6-chloroimidazo[1,2-a]pyridine-2-carbonyl)pyrrolidin-2-yl)thiazole-4-carboxamide]
> 9900 | CNC(=O)[C@H](CCCCNC(N)=O)NC(=O)c1csc([C@@H]2C[C@@H](N)CN2C(=O)c2cn3cc(Cl)ccc3n2)n1 [Compound 27, 2-((2S,4R)-4-amino-1-(6-chloroimidazo[1,2-a]pyridine-2-carbonyl)pyrrolidin-2-yl)-N—((S)-1-(methylamino)-1-oxo-6-ureidohexan-2-yl)thiazole-4-carboxamide]
5000 to 9900 | CNC(=O)[C@H](CCCNC(=N)N)NC(=O)c1csc([C@@H]2C[C@@H](N)CN2C(=O)c2cn3cc(Cl)ccc3n2)n1 [Compound 28, 2-((2S,4R)-4-amino-1-(6-chloroimidazo[1,2-a]pyridine-2-carbonyl)pyrrolidin-2-yl)-N—((S)-5-guanidino-1-(methylamino)-1-oxopentan-2-yl)thiazole-4-carboxamide]
> 9900 | CNC(=O)[C@H](CCC(N)=O)NC(=O)c1csc([C@@H]2C[C@@H](N)CN2C(=O)c2cn3cc(Cl)ccc3n2)n1 [Compound 29, (S)-2-(2-((2S,4R)-4-amino-1-(6-chloroimidazo[1,2-a]pyridine-2-carbonyl)pyrrolidin-2-yl)thiazole-4-carboxamido)-N1-methylpentanediamide]
> 9900 | CNC(=O)[C@H](Cc1c[nH]cn1)NC(=O)c1csc([C@@H]2C[C@@H](N)CN2C(=O)c2cn3cc(Cl)ccc3n2)n1 [Compound 30, N—((S)-3-(1H-imidazol-4-yl)-1-(methylamino)-1-oxopropan-2-yl)-2-((2S,4R)-4-amino-1-(6-chloroimidazo[1,2-a]pyridine-2-carbonyl)pyrrolidin-2-yl)thiazole-4-carboxamide]
> 9900 | CNC(=O)[C@H](Cc1c[nH]c2ccccc12)NC(=O)c1csc([C@@H]2C[C@@H](N)CN2C(=O)c2cn3cc(Cl)ccc3n2)n1 [Compound 31, N—((S)-3-(1H-indol-3-yl)-1-(methylamino)-1-oxopropan-2-yl)-2-((2S,4R)-4-amino-1-(6-chloroimidazo[1,2-a]pyridine-2-carbonyl)pyrrolidin-2-yl)thiazole-4-carboxamide]
> 9900 | CNC(=O)[C@H](Cc1ccc(O)cc1)NC(=O)c1csc([C@@H]2C[C@@H](N)CN2C(=O)c2cn3cc(Cl)ccc3n2)n1 [Compound 32, 2-((2S,4R)-4-amino-1-(6-chloroimidazo[1,2-a]pyridine-2-carbonyl)pyrrolidin-2-yl)-N—((S)-3-(4-hydroxyphenyl)-1-(methylamino)-1-oxopropan-2-yl)thiazole-4-carboxamide]
> 9900 | CNC(=O)[C@@H](CCCCNC(=N)N)NC(=O)c1csc([C@@H]2CCCN2C(=O)c2cn3cc(Cl)ccc3n2)n1 [Compound 34, 2-((S)-1-(6-Chloroimidazo[1,2-a]pyridine-2-carbonyl)pyrrolidin-2-yl)-N—((R)-6-guanidino-1-(methylamino)-1-oxohexan-2-yl)thiazole-4-carboxamide]
1000 to 5000 | CNC(=O)[C@H](CCCCNC(=N)N)NC(=O)c1csc([C@@H]2C[C@@H](NC(C)=O)CN2C(=O)c2cn3cc(Cl)ccc3n2)n1 [Compound 35, 2-((2S,4R)-4-acetamido-1-(6-chloroimidazo[1,2-a]pyridine-2-carbonyl)pyrrolidin-2-yl)-N—((S)-6-guanidino-1-(methylamino)-1-oxohexan-2-yl)thiazole-4-carboxamide]
≤ 100 | CNC(=O)[C@H](CCCCNC(=N)N)NC(=O)c1csc([C@@H]2C[C@H](N)CN2C(=O)c2cn3cc(Cl)ccc3n2)n1 [Compound 36, 2-((2S,4S)-4-amino-1-(6-chloroimidazo[1,2-a]pyridine-2-carbonyl)pyrrolidin-2-yl)-N—((S)-6-guanidino-1-(methylamino)-1-oxohexan-2-yl)thiazole-4-carboxamide]
1000 to 5000 | CNC(=O)[C@H](CCCCNC(=N)N)NC(=O)c1csc([C@@H]2C[C@H](O)CN2C(=O)c2cn3cc(Cl)ccc3n2)n1 [Compound 37, 2-((2S,4S)-1-(6-Chloroimidazo[1,2-a]pyridine-2-carbonyl)-4-hydroxypyrrolidin-2-yl)-N—((S)-6-guanidino-1-(methylamino)-1-oxohexan-2-yl)thiazole-4-carboxamide]
> 9900 | CNC(=O)[C@H](CCCCNC(=N)N)NC(=O)c1csc([C@@H]2C[C@@H](O)CN2C(=O)c2cn3cc(Cl)ccc3n2)n1 [Compound 38, 2-((2S,4R)-1-(6-Chloroimidazo[1,2-a]pyridine-2-carbonyl)-4-hydroxypyrrolidin-2-yl)-N—((S)-6-guanidino-1-(methylamino)-1-oxohexan-2-yl)thiazole-4-carboxamide]
5000 to 9900 | CNC(=O)[C@@H](CCCCNC(=N)N)NC(=O)c1csc([C@@H]2C[C@@H](O)CN2C(=O)c2cn3cc(Cl)ccc3n2)n1 [Compound 39, 2-((2S,4R)-1-(6-Chloroimidazo[1,2-a]pyridine-2-carbonyl)-4-hydroxypyrrolidin-2-yl)-N—((R)-6-guanidino-1-(methylamino)-1-oxohexan-2-yl)thiazole-4-carboxamide]
1000 to 5000 | CNC(=O)[C@H](CCCCNC(=N)N)NC(=O)c1csc([C@@H]2C[C@@H](N)CN2C(=O)c2ccc3ccccc3c2)n1 [Compound 40, 2-((2S,4R)-1-(2-naphthoyl)-4-aminopyrrolidin-2-yl)-N—((S)-6-guanidino-1-(methylamino)-1-oxohexan-2-yl)thiazole-4-carboxamide]
100 to 1000 | CNC(=O)[C@H](CCCCNC(=N)N)NC(=O)c1csc([C@@H]2C[C@@H](N)CN2C(=O)c2ccc3ncc(Cl)cc3c2)n1 [Compound 41, 2-((2S,4R)-4-amino-1-(3-chloroquinoline-6-carbonyl)pyrrolidin-2-yl)-N—((S)-6-guanidino-1-(methylamino)-1-oxohexan-2-yl)thiazole-4-carboxamide]
5000 to 9900 | CNC(=O)[C@H](CCCCNC(=N)N)NC(=O)c1csc([C@@H]2C[C@@H](N)CN2C(=O)c2ccc3c(Cl)csc3c2)n1 [Compound 43, 2-((2S,4R)-4-amino-1-(3-chlorobenzo[b]thiophene-6-carbonyl)pyrrolidin-2-yl)-N—((S)-6-guanidino-1-(methylamino)-1-oxohexan-2-yl)thiazole-4-carboxamide]
100 to 1000 | CNC(=O)[C@H](CCCCNC(=N)N)NC(=O)c1csc([C@@H]2C[C@@H](N)CN2C(=O)c2cc3cc(Cl)ccc3s2)n1 [Compound 44, 2-((2S,4R)-4-amino-1-(5-chlorobenzo[b]thiophene-2-carbonyl)pyrrolidin-2-yl)-N—((S)-6-guanidino-1-(methylamino)-1-oxohexan-2-yl)thiazole-4-carboxamide]
≤ 100 | CNC(=O)[C@H](CCCCNC(=N)N)NC(=O)c1csc([C@@H]2C[C@@H](N)CN2C(=O)c2nc3cc(Cl)ccc3s2)n1 [Compound 45, 2-((2S,4R)-4-amino-1-(5-chlorobenzo[d]thiazole-2-carbonyl)pyrrolidin-2-yl)-N—((S)-6-guanidino-1-(methylamino)-1-oxohexan-2-yl)thiazole-4-carboxamide]
100 to 1000 | N=C(N)NCCCCCNC(=O)c1csc([C@@H]2C[C@@H](N)CN2C(=O)c2cn3cc(Cl)ccc3n2)n1 [Compound 46, 2-((2S,4R)-4-amino-1-(6-chloroimidazo[1,2-a]pyridine-2-carbonyl)pyrrolidin-2-yl)-N-(5-guanidinopentyl)thiazole-4-carboxamide]
≤ 100 | N=C(N)c1ccc(CNC(=O)c2csc([C@@H]3C[C@@H](N)CN3C(=O)c3cn4cc(Cl)ccc4n3)n2)cc1 [Compound 47, 2-((2S,4R)-4-amino-1-(6-chloroimidazo[1,2-a]pyridine-2-carbonyl)pyrrolidin-2-yl)-N-(4-carbamimidoylbenzyl)thiazole-4-carboxamide]
100 to 1000 | Cc1cc(N)nc(C)c1CNC(=O)c1csc([C@@H]2C[C@@H](N)CN2C(=O)c2cn3cc(Cl)ccc3n2)n1 [Compound 48, 2-((2S,4R)-4-amino-1-(6-chloroimidazo[1,2-a]pyridine-2-carbonyl)pyrrolidin-2-yl)-N-((6-amino-2,4-dimethylpyridin-3-yl)methyl)thiazole-4-carboxamide]
≤ 100 | Nc1nccc2cc(CNC(=O)c3csc([C@@H]4C[C@@H](N)CN4C(=O)c4cn5cc(Cl)ccc5n4)n3)ccc12 [Compound 49, 2-((2S,4R)-4-amino-1-(6-chloroimidazo[1,2-a]pyridine-2-carbonyl)pyrrolidin-2-yl)-N-((1-aminoisoquinolin-6-yl)methyl)thiazole-4-carboxamide]
5000 to 9900 | NCc1ccc(CNC(=O)c2csc([C@@H]3C[C@@H](N)CN3C(=O)c3cn4cc(Cl)ccc4n3)n2)cc1 [Compound 50, 2-((2S,4R)-4-amino-1-(6-chloroimidazo[1,2-a]pyridine-2-carbonyl)pyrrolidin-2-yl)-N-(4-(aminomethyl)benzyl)thiazole-4-carboxamide]
≤ 100 | N=C(N)c1ccc(CCNC(=O)c2csc([C@@H]3C[C@@H](N)CN3C(=O)c3cn4cc(Cl)ccc4n3)n2)cc1 [Compound 51, 2-((2S,4R)-4-amino-1-(6-chloroimidazo[1,2-a]pyridine-2-carbonyl)pyrrolidin-2-yl)-N-(4-carbamimidoylphenethyl)thiazole-4-carboxamide]
